Measurements reported in ChEMBL document CHEMBL1201861, “Genomics of Drug Sensitity in Cancer screening data, Wellcome Trust Sanger Institute”.

What was measured:
Experiment in all cases: cells
[1] = tested on: COR-L23; assay type: functional, cell-based, Homo sapiens; details: Homo sapiens, COR-L23;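 further: cell viability assay measuring how strongly compounds suppress growth of COR-L23 cells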
Description: SANGER: Inhibition of human COR-L23 cell growth in a cell viability assay.

[2] = tested on: Calu-3; assay type: functional, cell-based, Homo sapiens; details: Homo sapiens, Calu-3;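 further: growth inhibition of human Calu-3 cells, determined with a cell viability assay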
Description: SANGER: Inhibition of human Calu-3 cell growth in a cell viability assay.

[3] = tested on: D-423MG; assay type: functional, cell-based, Homo sapiens; details: Homo sapiens, D-423MG
Description: SANGER: Inhibition of human D-423MG cell growth in a cell viability assay.

[4] = tested on: DU-145; assay type: functional, cell-based, Homo sapiens; details: Homo sapiens, DU-145
Description: SANGER: Inhibition of human DU-145 cell growth in a cell viability assay.

[5] = tested on: EFM-19; assay type: functional, cell-based, Homo sapiens; details: Homo sapiens, EFM-19;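 further: growth inhibition of human EFM-19 cells, measured in a cell viability assay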
Description: SANGER: Inhibition of human EFM-19 cell growth in a cell viability assay.

[6] = tested on: FaDu; assay type: functional, cell-based, Homo sapiens; details: Homo sapiens, FaDu;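 further: cell viability readout of growth inhibition in FaDu cells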
Description: SANGER: Inhibition of human FADU cell growth in a cell viability assay.

[7] = tested on: HCC70; assay type: functional, cell-based, Homo sapiens; details: Homo sapiens, HCC70;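 further: cell viability assay measuring how strongly the compound suppresses proliferation of HCC70 cells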
Description: SANGER: Inhibition of human HCC70 cell growth in a cell viability assay.

[8] = tested on: HMV-2 cell line; assay type: functional, cell-based, Homo sapiens; details: Homo sapiens, HMV-2;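 further: growth inhibition of HMV-II cells, read out with a cell viability assay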
Description: SANGER: Inhibition of human HMV-II cell growth in a cell viability assay.

[9] = tested on: HO-1-N-1; assay type: functional, cell-based, Homo sapiens; details: Homo sapiens, HO-1-N-1;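 further: growth inhibition of human HO-1-N-1 cells, read out with a cell viability assay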
Description: SANGER: Inhibition of human HO-1-N-1 cell growth in a cell viability assay.

[10] = tested on: HuCCT-1; assay type: functional, cell-based, Homo sapiens, HuCCT1; details: Homo sapiens, HuCCT-1;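 further: growth inhibition of HuCCT-1 cells, read out by a cell viability assay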
Description: SANGER: Inhibition of human HuCCT1 cell growth in a cell viability assay.

[11] = tested on: KYSE-450; assay type: functional, cell-based, Homo sapiens; details: Homo sapiens, KYSE-450;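 further: cell growth inhibition measured by a viability assay in human KYSE-450 cells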
Description: SANGER: Inhibition of human KYSE-450 cell growth in a cell viability assay.

[12] = tested on: LCLC-103H cell line; assay type: functional, cell-based, Homo sapiens; details: Homo sapiens, LCLC-103H
Description: SANGER: Inhibition of human LCLC-103H cell growth in a cell viability assay.

[13] = tested on: LK-2; assay type: functional, cell-based, Homo sapiens; details: Homo sapiens, LK-2;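 further: growth inhibition of LK-2 cells, read out with a viability assay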
Description: SANGER: Inhibition of human LK-2 cell growth in a cell viability assay.

[14] = tested on: MDA-MB-415; assay type: functional, cell-based, Homo sapiens; details: Homo sapiens, MDA-MB-415
[15] = tested on: MDA-MB-453; assay type: functional, cell-based, Homo sapiens; details: Homo sapiens, MDA-MB-453
Description: SANGER: Inhibition of human MDA-MB-453 cell growth in a cell viability assay.

[16] = tested on: MG-63; assay type: functional, cell-based, Homo sapiens; details: Homo sapiens, MG-63;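 further: growth inhibition of human MG-63 cells, read out with a cell viability assay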
Description: SANGER: Inhibition of human MG-63 cell growth in a cell viability assay.

[17] = tested on: MKN-7; assay type: functional, cell-based, Homo sapiens; details: Homo sapiens, MKN-7;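 further: growth inhibition of MKN-7 cells, read out with a cell viability assay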
Description: SANGER: Inhibition of human MKN7 cell growth in a cell viability assay.

[18] = tested on: NB14; assay type: functional, cell-based, Homo sapiens; details: Homo sapiens, NB14;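 further: growth inhibition of NB14 cells measured with a cell viability assay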
Description: SANGER: Inhibition of human NB14 cell growth in a cell viability assay.

[19] = tested on: NCI-H2052; assay type: functional, cell-based, Homo sapiens; details: Homo sapiens, NCI-H2052;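 further: growth inhibition of NCI-H2052 cells, read out with a cell viability assay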
Description: SANGER: Inhibition of human NCI-H2052 cell growth in a cell viability assay.

[20] = tested on: NCI-H2405; assay type: functional, cell-based, Homo sapiens; details: Homo sapiens, NCI-H2405;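 further: growth inhibition of the human cell line, read out with a cell viability assay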
Description: SANGER: Inhibition of human NCI-H2405 cell growth in a cell viability assay.

[21] = tested on: PANC-08-13; assay type: functional, cell-based, Homo sapiens; details: Homo sapiens, PANC-08-13;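 further: cell growth inhibition, measured with a cell viability assay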
Description: SANGER: Inhibition of human PANC-08-13 cell growth in a cell viability assay.

[22] = tested on: PC-3; assay type: functional, cell-based, Homo sapiens; details: Homo sapiens, PC-3;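 further: cell viability assay measuring growth inhibition of PC-3 cells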
Description: SANGER: Inhibition of human PC-3 cell growth in a cell viability assay.

[23] = tested on: SK-MEL-30; assay type: functional, cell-based, Homo sapiens; details: Homo sapiens, SK-MEL-30;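 further: growth inhibition of SK-MEL-30 cells, determined with a cell viability assay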
Description: SANGER: Inhibition of human SK-MEL-30 cell growth in a cell viability assay.

[24] = tested on: SK-MES-1; assay type: functional, cell-based, Homo sapiens; details: Homo sapiens, SK-MES-1;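 further: growth inhibition of human SK-MES-1 cells, read out with a cell viability assay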
Description: SANGER: Inhibition of human SK-MES-1 cell growth in a cell viability assay.

[25] = tested on: SW13; assay type: functional, cell-based, Homo sapiens; details: Homo sapiens, SW13;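 further: IC50 is inhibition of SW13 cell growth, read out with a cell viability assay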
Description: SANGER: Inhibition of human SW13 cell growth in a cell viability assay.

[26] = tested on: SW1417; assay type: functional, cell-based, Homo sapiens; details: Homo sapiens, SW1417;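 further: growth inhibition of human SW1417 cells, read out with a cell viability assay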
Description: SANGER: Inhibition of human SW1417 cell growth in a cell viability assay.

[27] = tested on: SW1463; assay type: functional, cell-based, Homo sapiens; details: Homo sapiens, SW1463;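 further: growth inhibition of SW1463 cells, determined with a cell viability assay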
Description: SANGER: Inhibition of human SW1463 cell growth in a cell viability assay.

[28] = tested on: 23132-87; assay type: functional, cell-based, Homo sapiens; details: Homo sapiens
Description: SANGER: Inhibition of human 23132-87 cell growth in a cell viability assay.

[29] = tested on: 8505C; assay type: functional, cell-based, Homo sapiens; details: Homo sapiens, 8505C
Description: SANGER: Inhibition of human 8505C cell growth in a cell viability assay.

[30] = tested on: A-431; assay type: functional, cell-based, Homo sapiens; details: Homo sapiens, A-431;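 further: growth inhibition of A-431 cells, determined with a cell viability read-out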
Description: SANGER: Inhibition of human A431 cell growth in a cell viability assay.

[31] = tested on: A673; assay type: functional, cell-based, Homo sapiens; details: Homo sapiens, A673;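 further: growth inhibition of human A673 cells, read out through a cell viability assay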
Description: SANGER: Inhibition of human A673 cell growth in a cell viability assay.

[32] = tested on: ACHN; assay type: functional, cell-based, Homo sapiens; details: Homo sapiens, ACHN;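 further: cell viability read-out used to gauge how strongly growth of human ACHN cells is suppressed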
Description: SANGER: Inhibition of human ACHN cell growth in a cell viability assay.

[33] = tested on: BCPAP; assay type: functional, cell-based, Homo sapiens; details: Homo sapiens, BCPAP;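 further: growth inhibition of BCPAP cells, read out in a cell viability assay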
Description: SANGER: Inhibition of human BCPAP cell growth in a cell viability assay.

[34] = tested on: BFTC-905; assay type: functional, cell-based, Homo sapiens; details: Homo sapiens, BFTC-905
Description: SANGER: Inhibition of human BFTC-905 cell growth in a cell viability assay.

[35] = tested on: BT-549; assay type: functional, cell-based, Homo sapiens; details: Homo sapiens, BT-549
Description: SANGER: Inhibition of human BT-549 cell growth in a cell viability assay.

[36] = tested on: CAL-33; assay type: functional, cell-based, Homo sapiens; details: Homo sapiens, CAL-33;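 further: growth inhibition of CAL-33 cells, read out with a cell viability assay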
Description: SANGER: Inhibition of human CAL-33 cell growth in a cell viability assay.

[37] = tested on: CAL-62; assay type: functional, cell-based, Homo sapiens; details: Homo sapiens, CAL-62;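 further: growth inhibition of CAL-62 cells, read out with a cell viability assay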
Description: SANGER: Inhibition of human CAL-62 cell growth in a cell viability assay.

[38] = tested on: UO-31; assay type: functional, cell-based, Homo sapiens; details: Homo sapiens, UO-31;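 further: cell viability assay measuring inhibition of cell growth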
Description: SANGER: Inhibition of human U031 cell growth in a cell viability assay.

[39] = tested on: CAMA-1; assay type: functional, cell-based, Homo sapiens; details: Homo sapiens, CAMA-1;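 further: growth inhibition of CAMA-1 cells, read out with a cell viability assay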
Description: SANGER: Inhibition of human CAMA-1 cell growth in a cell viability assay.

[40] = tested on: CAPAN-1; assay type: functional, cell-based, Homo sapiens; details: Homo sapiens, CAPAN-1;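 further: growth suppression of CAPAN-1 cells, read out by a cell viability assay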
Description: SANGER: Inhibition of human CAPAN-1 cell growth in a cell viability assay.

[41] = tested on: COLO-680N; assay type: functional, cell-based, Homo sapiens; details: Homo sapiens, COLO-680N;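 further: cell viability assay used to measure inhibition of COLO-680N cell growth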
Description: SANGER: Inhibition of human COLO-680N cell growth in a cell viability assay.

[42] = tested on: HSC-4; assay type: functional, cell-based, Homo sapiens; details: Homo sapiens, HSC-4;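 further: growth inhibition of human HSC-4 cells, read out with a cell viability assay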
Description: SANGER: Inhibition of human HSC-4 cell growth in a cell viability assay.

CC(C)CCN1c2nc(Nc3cc(F)c(O)c(F)c3)ncc2N(C)C(=O)C1C (stereo unspecified)
IC50 [1]: 4.74 µM
IC50 [2]: > 5 µM
IC50 [3]: 4.81 µM
IC50 [4]: 2.11 µM
IC50 [5]: > 5 µM
IC50 [6]: > 5 µM
IC50 [7]: > 5 µM
IC50 [8]: 2.17 µM
IC50 [9]: 3.8 µM
IC50 [10]: > 5 µM
IC50 [11]: > 5 µM
IC50 [12]: > 5 µM
IC50 [13]: > 5 µM
IC50 [14]: > 5 µM
IC50 [15]: > 5 µM
IC50 [16]: > 5 µM
IC50 [17]: > 5 µM
IC50 [18]: 2.11 µM
IC50 [19]: > 5 µM
IC50 [20]: > 5 µM
IC50 [21]: > 5 µM
IC50 [22]: 4.95 µM
IC50 [23]: > 5 µM
IC50 [24]: 3.73 µM
IC50 [25]: > 5 µM
IC50 [26]: > 5 µM
IC50 [27]: > 5 µM
IC50 [28]: > 5 µM
IC50 [29]: 4.46 µM
IC50 [30]: 4.14 µM
IC50 [31]: > 5 µM
IC50 [32]: > 5 µM
IC50 [33]: > 5 µM
IC50 [34]: 1.56 µM
IC50 [35]: > 5 µM
IC50 [36]: 3.53 µM
IC50 [37]: 0.882 µM
IC50 [38]: > 5 µM
IC50 [39]: > 5 µM
IC50 [40]: > 5 µM
IC50 [41]: > 5 µM

CC1(C)CNc2cc(NC(=O)c3cccnc3NCc3ccncc3)ccc21 [MOTESANIB]
IC50 [1]: > 2 µM
IC50 [2]: > 2 µM
IC50 [3]: > 2 µM
IC50 [4]: 0.469 µM
IC50 [5]: > 2 µM
IC50 [6]: > 2 µM
IC50 [7]: > 2 µM
IC50 [8]: > 2 µM
IC50 [9]: > 2 µM
IC50 [10]: > 2 µM
IC50 [11]: > 2 µM
IC50 [12]: > 2 µM
IC50 [13]: > 2 µM
IC50 [14]: > 2 µM
IC50 [15]: > 2 µM
IC50 [16]: > 2 µM
IC50 [17]: > 2 µM
IC50 [18]: > 2 µM
IC50 [19]: > 2 µM
IC50 [20]: > 2 µM
IC50 [21]: > 2 µM
IC50 [22]: > 2 µM
IC50 [23]: > 2 µM
IC50 [24]: > 2 µM
IC50 [25]: > 2 µM
IC50 [26]: > 2 µM
IC50 [27]: > 2 µM
IC50 [29]: > 2 µM
IC50 [30]: > 2 µM
IC50 [31]: > 2 µM
IC50 [32]: > 2 µM
IC50 [33]: > 2 µM
IC50 [34]: > 2 µM
IC50 [35]: > 2 µM
IC50 [36]: > 2 µM
IC50 [37]: > 2 µM
IC50 [38]: > 2 µM
IC50 [39]: > 2 µM
IC50 [40]: > 2 µM
IC50 [41]: > 2 µM

CC(C)c1ccccc1Cc1cc(C(=O)Nc2ccc(S(=O)(=O)c3ccccc3C(C)(C)C)cc2)c(O)c(O)c1O
IC50 [1]: 0.591 µM
IC50 [2]: 5.4 µM
IC50 [3]: 0.473 µM
IC50 [4]: 0.0521 µM
IC50 [5]: 1.59 µM
IC50 [6]: 0.526 µM
IC50 [7]: 0.858 µM
IC50 [8]: 0.309 µM
IC50 [9]: 1.42 µM
IC50 [42]: 0.213 µM
IC50 [10]: 0.348 µM
IC50 [11]: 0.175 µM
IC50 [12]: 0.21 µM
IC50 [13]: 1.5 µM
IC50 [15]: 0.152 µM
IC50 [16]: 0.112 µM
IC50 [17]: 4.47 µM
IC50 [18]: 0.0764 µM
IC50 [19]: 1.39 µM
IC50 [20]: 0.675 µM
IC50 [21]: 3.77 µM
IC50 [22]: 0.715 µM
IC50 [23]: 0.038 µM
IC50 [24]: 1.04 µM
IC50 [25]: 0.204 µM
IC50 [26]: 1.91 µM
IC50 [27]: 64.8 µM
IC50 [28]: 0.324 µM
IC50 [29]: 0.221 µM
IC50 [30]: 1.47 µM
IC50 [31]: 0.0538 µM
IC50 [32]: 0.149 µM
IC50 [33]: 0.242 µM
IC50 [34]: 0.708 µM
IC50 [35]: 0.68 µM
IC50 [36]: 0.817 µM
IC50 [37]: 0.308 µM
IC50 [38]: 0.184 µM
IC50 [39]: 0.661 µM
IC50 [40]: 10.8 µM
IC50 [41]: 1.43 µM

CN(C)C(=N)NC(=N)N [METFORMIN]
IC50 [1]: > 20000 µM
IC50 [2]: > 20000 µM
IC50 [3]: 3260 µM
IC50 [4]: 838 µM
IC50 [6]: 11200 µM
IC50 [7]: > 20000 µM
IC50 [9]: 13200 µM
IC50 [42]: 5480 µM
IC50 [10]: > 20000 µM
IC50 [11]: > 20000 µM
IC50 [12]: > 20000 µM
IC50 [13]: 9240 µM
IC50 [14]: 16800 µM
IC50 [15]: 12900 µM
IC50 [16]: 14000 µM
IC50 [21]: > 20000 µM
IC50 [22]: > 20000 µM
IC50 [23]: > 20000 µM
IC50 [24]: > 20000 µM
IC50 [25]: 10000 µM
IC50 [27]: > 20000 µM
IC50 [28]: 11200 µM
IC50 [29]: 15400 µM
IC50 [30]: > 20000 µM
IC50 [31]: 19200 µM
IC50 [32]: > 20000 µM
IC50 [33]: > 20000 µM
IC50 [34]: 11700 µM
IC50 [35]: 4200 µM
IC50 [36]: > 20000 µM
IC50 [37]: > 20000 µM
IC50 [38]: > 20000 µM
IC50 [39]: 11000 µM
IC50 [40]: > 20000 µM
